The target of assay [1] is Dual specificity protein kinase CLK2 (Homo sapiens, UniProt P49760). It counts as functional.
Assay [2] has as its target Tyrosine-protein kinase JAK2 (Homo sapiens, UniProt O60674). In kind it is functional.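 Note: JAK2 tested as one member of a kinase panel.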
The target of assay [3] is 5'-AMP-activated protein kinase catalytic subunit alpha-1 (Homo sapiens, UniProt Q13131). It counts as functional.
In assay [4] the target is ALK tyrosine kinase receptor (Homo sapiens, UniProt Q9UM73). It counts as functional.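 Note: ALK tested as one member of a kinase panel screen.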
Assay [5] has as its target Serine/threonine-protein kinase D3 (Homo sapiens, UniProt O94806). In kind it is functional.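 Note: determined within a kinase panel screen, with PRKCN as the panel member.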
For assay [6], the target named is Death-associated protein kinase 3 (Homo sapiens, UniProt O43293). In kind it is functional.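 Note: measured as one member of a kinome-wide profiling panel.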
The target in assay [7] is Serine/threonine-protein kinase pim-1 (Homo sapiens, UniProt P11309). It counts as functional.
Assay [8] addresses Casein kinase I isoform alpha (Homo sapiens, UniProt P48729). It counts as functional.
The target of another assay is LIM domain kinase 1 (Homo sapiens, UniProt P53667). The experiment in a line: Navigating the Kinome. Panel member name: LIMK1. It counts as functional.
Assay [9] has as its target T1, Serine/threonine-protein kinase Chk1 (Homo sapiens, UniProt O14757).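 Note: measured as one member of a kinome-wide kinase profiling panel.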
T1 sequence (O14757 whole entry): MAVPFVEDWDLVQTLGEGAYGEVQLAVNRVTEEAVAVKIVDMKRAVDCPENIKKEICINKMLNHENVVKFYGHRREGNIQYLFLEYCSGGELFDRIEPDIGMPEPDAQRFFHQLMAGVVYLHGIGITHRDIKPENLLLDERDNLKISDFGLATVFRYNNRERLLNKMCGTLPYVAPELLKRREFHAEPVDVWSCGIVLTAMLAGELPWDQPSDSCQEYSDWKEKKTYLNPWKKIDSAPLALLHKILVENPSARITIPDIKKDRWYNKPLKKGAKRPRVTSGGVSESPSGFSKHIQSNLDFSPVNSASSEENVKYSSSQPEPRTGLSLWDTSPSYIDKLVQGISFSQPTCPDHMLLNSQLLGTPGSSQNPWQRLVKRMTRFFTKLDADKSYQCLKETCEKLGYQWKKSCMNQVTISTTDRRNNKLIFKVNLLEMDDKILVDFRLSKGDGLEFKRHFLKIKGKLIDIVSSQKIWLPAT
It counts as functional.

The target in assay [10] is Insulin-like growth factor 1 receptor (Homo sapiens, UniProt P08069). The experiment in a line: Navigating the Kinome. Panel member name: IGF1R. It counts as functional.
Assay [11] addresses Dual specificity tyrosine-phosphorylation-regulated kinase 1B (Homo sapiens, UniProt Q9Y463). The experiment in a line: Navigating the Kinome. Panel member name: DYRK1B. In kind it is functional.
For assay [12], the target named is Rho-associated protein kinase 1 (Homo sapiens, UniProt Q13464). In kind it is functional.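 Note: measured within a broad kinome-wide panel profiling many kinases.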
In assay [13] the target is Cyclin-dependent kinase 7 (Homo sapiens, UniProt P50613). In kind it is functional.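 Note: value comes from a kinome-wide kinase profiling panel in which CDK7 is one member.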
The target in assay [14] is Calcium/calmodulin-dependent protein kinase type II subunit alpha (Homo sapiens, UniProt Q9UQM7). The assay is described as follows: Navigating the Kinome. Panel member name: CAMK2A. It counts as functional.
Assay [15] concerns the target T2, Replicative DNA helicase DnaB (Mycobacterium tuberculosis, UniProt P9WMR3).
T2 sequence (P9WMR3 whole entry): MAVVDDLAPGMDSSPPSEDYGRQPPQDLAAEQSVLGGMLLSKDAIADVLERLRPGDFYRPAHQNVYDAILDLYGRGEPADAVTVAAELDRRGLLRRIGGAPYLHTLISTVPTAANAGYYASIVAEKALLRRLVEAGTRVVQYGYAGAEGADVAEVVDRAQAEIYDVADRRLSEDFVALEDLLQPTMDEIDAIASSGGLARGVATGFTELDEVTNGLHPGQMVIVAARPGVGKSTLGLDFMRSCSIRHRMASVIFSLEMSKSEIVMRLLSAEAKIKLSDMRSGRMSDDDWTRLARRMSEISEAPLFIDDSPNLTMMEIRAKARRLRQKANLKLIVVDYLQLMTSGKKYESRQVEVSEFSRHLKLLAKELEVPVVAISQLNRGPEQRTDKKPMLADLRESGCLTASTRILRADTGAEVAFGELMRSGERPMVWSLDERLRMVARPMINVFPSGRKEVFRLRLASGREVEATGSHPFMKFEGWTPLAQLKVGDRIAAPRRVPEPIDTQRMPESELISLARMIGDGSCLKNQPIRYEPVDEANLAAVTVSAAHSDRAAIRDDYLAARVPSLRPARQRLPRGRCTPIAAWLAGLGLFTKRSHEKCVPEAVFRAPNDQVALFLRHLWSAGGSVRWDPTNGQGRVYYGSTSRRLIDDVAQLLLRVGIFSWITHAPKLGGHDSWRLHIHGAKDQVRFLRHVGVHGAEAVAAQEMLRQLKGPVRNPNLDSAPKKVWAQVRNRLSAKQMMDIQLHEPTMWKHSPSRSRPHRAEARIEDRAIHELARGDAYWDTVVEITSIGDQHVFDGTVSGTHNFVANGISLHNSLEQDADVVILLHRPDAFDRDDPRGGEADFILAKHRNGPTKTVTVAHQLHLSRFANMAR
The assay is described as follows: DnaB intein splicing inhibitors, dose response, biochemical, cell-free fluorescence (AID 449749). In kind it is functional.

Assay [16] addresses T3, Sentrin-specific protease 8 (Homo sapiens, UniProt Q96LD8).
T3 sequence (Q96LD8 whole entry): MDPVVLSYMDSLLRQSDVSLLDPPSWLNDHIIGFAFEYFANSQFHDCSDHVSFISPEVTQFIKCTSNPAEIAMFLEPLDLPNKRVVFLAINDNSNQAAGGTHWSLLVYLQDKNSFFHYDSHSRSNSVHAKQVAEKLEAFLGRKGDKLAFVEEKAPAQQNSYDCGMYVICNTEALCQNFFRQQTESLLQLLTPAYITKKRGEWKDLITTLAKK
The assay is described as follows: inhibition of human SENP8 cleavage activity – biochemical, luminescence, SAR follow-up (AID 504501). In kind it is functional.

The test system of assay [17] is Streptococcus sp. 'group A'. The assay is described as follows: Streptococcus pyogenes SK(-)GAS viability under kanamycin – luminescence, BacTiterGlo, confirmation, counter-screen for streptokinase expression inhibitor project, dose response (AID 1900). In kind it is functional, organism-based. In general terms: A counterscreen serves to expose hits that act by an unwanted route or on another target.

The nature of assay [18]: alpha-synuclein stem-loop luciferase translation blockers – H4 neuroglioma cells, luminescence, confirmation (AID 1988). It counts as functional, cell-based.
The next assay deals with Streptococcus. The assay is described as follows: GAS UMAA2166 growth inhibition – luminescence, BacTiterGlo, counter-screen for streptokinase expression inhibitor project, dose response (AID 1915).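 Note: potency for reduction of bacterial viability or growth.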 In kind it is functional, organism-based.
The next assay addresses Beta-galactosidase (Escherichia coli, UniProt Q8VNN2). The experiment in a line: detection-enzyme interference by beta-gal modulators – biochemical, E. coli enzyme, set 3, artefact control for CCR6 antagonist project, dose response (AID 504712). In kind it is functional.
The nature of assay [19]: cAMP pathway inhibition in counterscreen cell line – TR-FRET cAMP detection, counter-screen for MC4R biased antagonist project, dose response (AID 602305).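 Note: U2OS cells stimulated with forskolin near its EC80 as the cAMP inducer; potency is for inhibition of forskolin-stimulated cAMP signaling.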 It counts as functional, cell-based.
In assay [20] the target is Matrix metalloproteinase-14 (Homo sapiens, UniProt P50281). The experiment in a line: SAR confirmation of uHTS hits for a small molecule inhibitors of MT1-MMP activation in a fluorescence assay. In kind it is functional.

Calls of active or inactive are those of the source.

3 molecules from ChEMBL document CHEMBL1201862, “PubChem BioAssay data set” (2004) can be followed below.

Serine/threonine-protein kinase pim-1, sequence (P11309 whole entry, canonical isoform): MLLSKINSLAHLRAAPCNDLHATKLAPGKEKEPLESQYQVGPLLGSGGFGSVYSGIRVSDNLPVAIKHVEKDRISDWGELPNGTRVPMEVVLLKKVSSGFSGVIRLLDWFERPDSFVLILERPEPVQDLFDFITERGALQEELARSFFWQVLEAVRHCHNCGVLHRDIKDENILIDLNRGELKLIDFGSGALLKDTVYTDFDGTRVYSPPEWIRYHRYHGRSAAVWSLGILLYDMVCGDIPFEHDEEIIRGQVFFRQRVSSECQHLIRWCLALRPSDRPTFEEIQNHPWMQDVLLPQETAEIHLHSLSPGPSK
Death-associated protein kinase 3, sequence (O43293 whole entry): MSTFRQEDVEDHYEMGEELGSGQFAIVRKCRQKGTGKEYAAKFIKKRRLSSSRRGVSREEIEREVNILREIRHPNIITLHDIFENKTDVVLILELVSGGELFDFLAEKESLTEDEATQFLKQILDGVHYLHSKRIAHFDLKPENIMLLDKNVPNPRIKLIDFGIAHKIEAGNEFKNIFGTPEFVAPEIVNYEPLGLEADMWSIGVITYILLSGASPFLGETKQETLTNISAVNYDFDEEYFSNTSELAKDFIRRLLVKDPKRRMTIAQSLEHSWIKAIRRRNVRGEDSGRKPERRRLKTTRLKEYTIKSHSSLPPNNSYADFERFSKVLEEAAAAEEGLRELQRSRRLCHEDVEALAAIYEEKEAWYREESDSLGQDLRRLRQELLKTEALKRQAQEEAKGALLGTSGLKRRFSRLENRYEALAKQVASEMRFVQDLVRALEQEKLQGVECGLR
Insulin-like growth factor 1 receptor, sequence (P08069 31-736 limits assumed): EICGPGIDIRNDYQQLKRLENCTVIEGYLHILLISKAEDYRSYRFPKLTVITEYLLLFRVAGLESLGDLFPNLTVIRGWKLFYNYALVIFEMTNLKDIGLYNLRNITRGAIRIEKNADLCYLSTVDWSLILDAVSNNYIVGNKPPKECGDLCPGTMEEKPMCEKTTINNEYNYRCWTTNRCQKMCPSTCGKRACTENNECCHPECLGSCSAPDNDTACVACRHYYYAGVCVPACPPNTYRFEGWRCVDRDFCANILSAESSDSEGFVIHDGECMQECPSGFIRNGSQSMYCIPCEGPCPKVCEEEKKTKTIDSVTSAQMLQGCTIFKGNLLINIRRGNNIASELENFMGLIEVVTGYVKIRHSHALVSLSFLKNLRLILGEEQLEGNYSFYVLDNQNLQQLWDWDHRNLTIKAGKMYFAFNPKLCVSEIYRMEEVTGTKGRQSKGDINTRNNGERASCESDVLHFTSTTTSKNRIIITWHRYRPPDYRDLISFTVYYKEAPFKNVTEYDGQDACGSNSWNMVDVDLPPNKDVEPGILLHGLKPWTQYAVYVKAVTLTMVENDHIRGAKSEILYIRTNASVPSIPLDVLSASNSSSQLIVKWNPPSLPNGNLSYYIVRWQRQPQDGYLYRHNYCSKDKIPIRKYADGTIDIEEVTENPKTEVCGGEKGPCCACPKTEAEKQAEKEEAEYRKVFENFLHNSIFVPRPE
Insulin-like growth factor 1 receptor, sequence (P08069 741-1367 limits assumed): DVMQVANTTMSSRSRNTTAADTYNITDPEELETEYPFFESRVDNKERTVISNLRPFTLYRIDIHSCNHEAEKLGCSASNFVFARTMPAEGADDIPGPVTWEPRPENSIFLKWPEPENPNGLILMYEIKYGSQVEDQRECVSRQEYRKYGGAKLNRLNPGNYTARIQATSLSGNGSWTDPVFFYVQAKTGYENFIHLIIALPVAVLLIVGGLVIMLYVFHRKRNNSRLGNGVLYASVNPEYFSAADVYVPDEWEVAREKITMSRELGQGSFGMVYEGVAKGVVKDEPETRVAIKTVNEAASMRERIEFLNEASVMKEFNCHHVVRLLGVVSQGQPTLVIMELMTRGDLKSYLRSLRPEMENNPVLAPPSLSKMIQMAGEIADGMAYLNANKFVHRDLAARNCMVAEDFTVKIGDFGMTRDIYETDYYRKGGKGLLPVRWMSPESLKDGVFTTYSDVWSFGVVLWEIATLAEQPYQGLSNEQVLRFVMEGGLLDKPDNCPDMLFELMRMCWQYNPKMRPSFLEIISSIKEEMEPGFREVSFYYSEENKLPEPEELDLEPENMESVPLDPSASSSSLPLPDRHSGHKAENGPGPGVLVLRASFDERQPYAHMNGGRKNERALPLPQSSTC
Beta-galactosidase, sequence (Q8VNN2 whole entry): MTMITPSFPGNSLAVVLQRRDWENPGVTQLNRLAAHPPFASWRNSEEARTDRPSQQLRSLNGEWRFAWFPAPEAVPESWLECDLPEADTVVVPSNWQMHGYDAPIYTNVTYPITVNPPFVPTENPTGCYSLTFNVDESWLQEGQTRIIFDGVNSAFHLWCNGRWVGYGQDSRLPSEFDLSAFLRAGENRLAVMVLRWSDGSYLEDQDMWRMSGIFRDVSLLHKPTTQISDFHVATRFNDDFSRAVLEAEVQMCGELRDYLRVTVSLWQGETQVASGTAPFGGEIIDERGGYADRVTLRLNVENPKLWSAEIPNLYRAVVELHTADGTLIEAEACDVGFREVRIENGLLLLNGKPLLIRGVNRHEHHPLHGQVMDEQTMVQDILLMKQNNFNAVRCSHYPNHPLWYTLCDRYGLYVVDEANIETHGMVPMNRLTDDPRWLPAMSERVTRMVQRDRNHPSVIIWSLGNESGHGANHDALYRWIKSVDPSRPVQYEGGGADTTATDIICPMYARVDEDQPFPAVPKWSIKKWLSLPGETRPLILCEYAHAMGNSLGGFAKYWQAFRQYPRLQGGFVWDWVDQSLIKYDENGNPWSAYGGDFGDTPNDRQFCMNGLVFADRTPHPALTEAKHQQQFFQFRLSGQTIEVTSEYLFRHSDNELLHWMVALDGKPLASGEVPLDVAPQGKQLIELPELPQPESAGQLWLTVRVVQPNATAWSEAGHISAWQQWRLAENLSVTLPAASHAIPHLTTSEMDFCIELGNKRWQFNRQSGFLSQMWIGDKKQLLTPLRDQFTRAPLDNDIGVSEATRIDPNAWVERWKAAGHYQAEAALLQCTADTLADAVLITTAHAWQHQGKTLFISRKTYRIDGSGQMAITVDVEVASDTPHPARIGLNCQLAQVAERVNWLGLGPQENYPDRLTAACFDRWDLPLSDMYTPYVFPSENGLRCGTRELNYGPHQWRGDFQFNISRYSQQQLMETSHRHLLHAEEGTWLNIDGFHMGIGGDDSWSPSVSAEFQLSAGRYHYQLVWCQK
Dual specificity protein kinase CLK2, sequence (P49760 whole entry): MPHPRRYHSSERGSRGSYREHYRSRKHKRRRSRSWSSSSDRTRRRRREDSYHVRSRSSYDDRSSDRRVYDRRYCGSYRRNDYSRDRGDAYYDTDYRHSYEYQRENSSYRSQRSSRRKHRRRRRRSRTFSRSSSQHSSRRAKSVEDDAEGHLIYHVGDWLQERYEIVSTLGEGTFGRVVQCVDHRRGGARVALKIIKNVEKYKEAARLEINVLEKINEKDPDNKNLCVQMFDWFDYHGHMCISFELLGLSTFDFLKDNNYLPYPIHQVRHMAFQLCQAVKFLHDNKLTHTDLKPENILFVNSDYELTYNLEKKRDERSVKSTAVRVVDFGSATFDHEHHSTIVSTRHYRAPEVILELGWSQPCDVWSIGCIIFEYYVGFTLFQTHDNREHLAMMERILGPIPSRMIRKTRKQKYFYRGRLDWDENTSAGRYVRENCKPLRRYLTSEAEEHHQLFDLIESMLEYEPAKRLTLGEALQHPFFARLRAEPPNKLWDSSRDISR
Cyclin-dependent kinase 7, sequence (P50613 whole entry): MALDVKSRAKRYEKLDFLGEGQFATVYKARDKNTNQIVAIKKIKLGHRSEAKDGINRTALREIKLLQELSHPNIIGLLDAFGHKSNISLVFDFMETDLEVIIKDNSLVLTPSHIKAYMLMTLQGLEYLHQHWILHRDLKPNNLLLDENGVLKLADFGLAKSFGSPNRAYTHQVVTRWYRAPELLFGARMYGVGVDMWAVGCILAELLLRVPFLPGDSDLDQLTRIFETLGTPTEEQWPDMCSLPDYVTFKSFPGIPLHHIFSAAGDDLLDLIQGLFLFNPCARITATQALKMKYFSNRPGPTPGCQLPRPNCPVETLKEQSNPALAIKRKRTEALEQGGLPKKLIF
LIM domain kinase 1, sequence (P53667 whole entry, the tested form may be a part): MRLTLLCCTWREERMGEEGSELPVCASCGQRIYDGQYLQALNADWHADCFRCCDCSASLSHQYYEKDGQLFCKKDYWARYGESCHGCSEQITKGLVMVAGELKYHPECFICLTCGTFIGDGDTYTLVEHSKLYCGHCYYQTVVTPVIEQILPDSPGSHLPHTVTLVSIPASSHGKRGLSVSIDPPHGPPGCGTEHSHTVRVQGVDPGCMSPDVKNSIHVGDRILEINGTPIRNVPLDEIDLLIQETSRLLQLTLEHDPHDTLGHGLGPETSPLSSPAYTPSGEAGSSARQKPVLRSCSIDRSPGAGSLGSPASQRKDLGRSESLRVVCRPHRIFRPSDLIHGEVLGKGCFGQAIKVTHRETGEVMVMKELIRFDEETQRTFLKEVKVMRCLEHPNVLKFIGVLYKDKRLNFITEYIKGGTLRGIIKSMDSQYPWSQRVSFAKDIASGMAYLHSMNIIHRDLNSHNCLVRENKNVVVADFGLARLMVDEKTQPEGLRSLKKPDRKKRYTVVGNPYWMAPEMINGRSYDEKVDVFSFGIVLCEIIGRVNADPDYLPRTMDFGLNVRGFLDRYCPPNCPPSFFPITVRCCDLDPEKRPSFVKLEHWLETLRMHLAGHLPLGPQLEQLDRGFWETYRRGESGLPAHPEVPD
Casein kinase I isoform alpha, sequence (P48729 whole entry, the tested form may be a part, canonical isoform): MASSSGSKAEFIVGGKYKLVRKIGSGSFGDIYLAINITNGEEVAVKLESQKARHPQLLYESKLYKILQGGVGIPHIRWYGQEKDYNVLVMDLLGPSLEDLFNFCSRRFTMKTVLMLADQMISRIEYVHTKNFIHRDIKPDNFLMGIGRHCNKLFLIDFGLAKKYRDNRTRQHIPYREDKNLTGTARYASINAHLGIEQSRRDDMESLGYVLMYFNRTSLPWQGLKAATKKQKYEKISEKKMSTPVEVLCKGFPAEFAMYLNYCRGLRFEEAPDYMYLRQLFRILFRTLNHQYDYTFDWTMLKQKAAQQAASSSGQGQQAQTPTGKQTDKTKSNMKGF

As a reminder, the Ki is the dissociation constant of the complex between target and ligand, obtained from inhibition or displacement. `COc1cccc(C(C)NC(=O)c2ccc(-c3ccncc3)s2)c1` (stereo not drawn): the Ki in [1] is > 3.98 µM (inactive); in assay [2], > 2.51 µM (inactive); in [3] it was > 3.16 µM (inactive); in assay [4], > 6.31 µM (inactive); in assay [5] it was > 3.98 µM (inactive); in assay [6], > 5.01 µM (inactive). Also, the Ki is > 6.31 µM (inactive) in assay [7]; 1.58 µM (active) in assay [8]; > 3.16 µM (inactive) on LIM domain kinase 1; 0.0794 µM (active) in assay [9]; > 2.51 µM (inactive) in assay [10]; > 2.51 µM (inactive) in assay [11]. The inhibition constant Ki in assay [12] is 0.00126 µM (active); in assay [13], > 3.98 µM (inactive); in [14] it was > 3.98 µM (inactive).
By AC50 is commonly meant the concentration at which the activity in the assay is half-maximal. Broadly, the IC50 is the midpoint of a concentration-inhibition curve. In the case of `Cc1ccc(NC(=O)COc2cccc(/C=C3\SC(=S)N(CCC(=O)O)C3=O)c2)cc1Cl`, the half-maximal activity concentration (AC50) in [15] is 6.13 µM (active). The IC50 in assay [16] is > 99 µM (inactive).
The term EC50 denotes the concentration at which the effect is half-maximal. On to `O=Nc1c(-c2c(O)[nH]c3cc(Br)ccc23)[nH]c2ccccc12`, for which the concentration for a half-maximal effect (EC50) in [17] is 2.6 µM (active); in assay [18] it was 9.31 µM (active); with Streptococcus it was 3.48 µM (active). Moreover, the IC50 is 40.8 µM (inactive) on Beta-galactosidase, > 64.6 µM (inactive) in [19] and 8.89 µM (active) in assay [20].
